target: T1, purified human HDAC6 (Homo sapiens, UniProt Q9UBN7); test: HDAC6 Enzyme Assay; type: biochemical; conditions: compound concentration 0.37 μM, read-out: Percent Inhibition
T1 construct: purchased BPS Bioscience 5006
T1 sequence (Q9UBN7 1-1215): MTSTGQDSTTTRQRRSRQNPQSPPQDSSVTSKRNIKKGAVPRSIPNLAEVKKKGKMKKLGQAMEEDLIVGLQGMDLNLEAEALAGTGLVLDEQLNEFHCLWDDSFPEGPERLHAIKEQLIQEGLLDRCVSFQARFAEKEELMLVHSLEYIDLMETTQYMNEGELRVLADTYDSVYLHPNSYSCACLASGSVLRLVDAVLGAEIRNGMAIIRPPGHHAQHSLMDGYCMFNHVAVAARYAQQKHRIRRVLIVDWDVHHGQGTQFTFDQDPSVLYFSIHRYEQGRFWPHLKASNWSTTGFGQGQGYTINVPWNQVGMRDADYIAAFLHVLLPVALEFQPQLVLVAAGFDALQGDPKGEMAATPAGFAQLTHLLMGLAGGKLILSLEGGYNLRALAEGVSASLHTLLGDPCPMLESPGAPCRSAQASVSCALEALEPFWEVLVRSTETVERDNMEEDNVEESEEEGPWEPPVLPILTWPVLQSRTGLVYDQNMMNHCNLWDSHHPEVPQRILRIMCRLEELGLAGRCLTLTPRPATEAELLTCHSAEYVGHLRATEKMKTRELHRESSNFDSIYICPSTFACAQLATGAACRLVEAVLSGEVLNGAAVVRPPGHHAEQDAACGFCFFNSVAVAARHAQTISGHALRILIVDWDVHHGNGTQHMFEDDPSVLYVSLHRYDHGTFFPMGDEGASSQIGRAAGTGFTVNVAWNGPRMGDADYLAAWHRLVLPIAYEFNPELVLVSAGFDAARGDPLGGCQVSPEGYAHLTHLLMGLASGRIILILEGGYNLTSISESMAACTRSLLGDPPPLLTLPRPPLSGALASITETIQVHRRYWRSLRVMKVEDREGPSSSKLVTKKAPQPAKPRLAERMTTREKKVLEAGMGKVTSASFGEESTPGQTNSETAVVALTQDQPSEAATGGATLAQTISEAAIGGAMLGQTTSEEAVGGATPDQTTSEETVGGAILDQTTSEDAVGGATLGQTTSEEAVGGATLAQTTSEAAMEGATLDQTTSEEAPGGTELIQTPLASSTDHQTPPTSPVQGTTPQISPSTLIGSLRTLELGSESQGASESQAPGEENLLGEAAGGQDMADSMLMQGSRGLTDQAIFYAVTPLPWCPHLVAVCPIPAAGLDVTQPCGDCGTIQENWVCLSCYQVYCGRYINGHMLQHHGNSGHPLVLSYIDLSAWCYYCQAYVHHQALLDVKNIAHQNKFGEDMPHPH
In short: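 Readout is AMC fluorescence (Ex 340 nm, Em 460 nm) after trypsin cleavage of the deacetylated Ac-Arg-Gly-Lys(Ac)-AMC product. Reaction: purified human HDAC6, compound or vehicle, 1 hour, 30° C, quenched by trichostatin A. Single-concentration percent inhibition or IC50 calculated versus DMSO-treated samples.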

| SMILES | inhibition at 0.37 µM [%] |
| --- | --- |
| CC(C)(C)C(=O)Nc1ncccc1-c1cccc(CCn2cnc3ccc(C(=O)NO)cc3c2=O)c1 [Compound I-327, 3-[2-(3-{2-[(2,2-dimethylpropanoyl)amino]pyridin-3-yl}phenyl)ethyl]-N-hydroxy-4-oxo-3,4-dihydroquinazoline-6-carboxamide] | 92 |
| O=C(NO)c1ccc2ncn(CCc3cccc(-c4ccn[nH]4)c3)c(=O)c2c1 [Compound I-323, N-hydroxy-4-oxo-3-{2-[3-(1H-pyrazol-5-yl)phenyl]ethyl}-3,4-dihydroquinazoline-6-carboxamide] | 94.6 |
| CC(C)NCCn1cnc2ccc(C(=O)NO)cc2c1=O [Compound I-294, N-hydroxy-3-[2-(isopropylamino)ethyl]-4-oxo-3,4-dihydroquinazoline-6-carboxamide] | 56 |
| CS(=O)(=O)c1cccc(CCn2cnc3ccc(C(=O)NO)cc3c2=O)c1 [Compound I-216, N-hydroxy-3-{2-[3-(methylsulfonyl)phenyl]ethyl}-4-oxo-3,4-dihydroquinazoline-6-carboxamide] | 85.7 |
| COc1ccc(-c2cccc(Cn3cnc4ccc(C(=O)NO)cc4c3=O)c2)cn1 [Compound I-143, N-hydroxy-3-[3-(6-methoxypyridin-3-yl)benzyl]-4-oxo-3,4-dihydroquinazoline-6-carboxamide] | 96.6 |
| COc1ccc(-c2nc3cc(C(=O)NO)ccc3c(=O)[nH]2)cc1 [Compound I-395, N-hydroxy-2-(4-methoxyphenyl)-4-oxo-3,4-dihydroquinazoline-7-carboxamide] | 80.8 |
| O=C(NO)c1ccc2ccn(-c3ccc(Cl)cc3)c(=O)c2c1 [Compound I-247, 2-(4-chlorophenyl)-N-hydroxy-1-oxo-1,2-dihydroisoquinoline-7-carboxamide] | 93 |
| CN(C)Cc1cn(Cc2ccccc2)c(=O)c2cc(C(=O)NO)ccc12 [Compound I-419, 2-benzyl-4-[(dimethylamino)methyl]-N-hydroxy-1-oxo-1,2-dihydroisoquinoline-7-carboxamide] | 23.2 |
| Cc1ccc(-c2cccc(CCn3cnc4ccc(C(=O)NO)cc4c3=O)c2)cc1 [Compound I-301, N-hydroxy-3-[2-(4′-methylbiphenyl-3-yl)ethyl]-4-oxo-3,4-dihydroquinazoline-6-carboxamide] | 88.1 |

same assay, conditions: compound concentration 0.412 μM, read-out: Percent Inhibition

| SMILES | inhibition at 0.412 µM [%] |
| --- | --- |
| O=C(NO)c1ccc2ccn(Cc3ccc(-n4cccn4)cc3)c(=O)c2c1 [Compound I-289, N-hydroxy-1-oxo-2-[4-(1H-pyrazol-1-yl)benzyl]-1,2-dihydroisoquinoline-7-carboxamide] | 96.7 |
| O=C(NO)c1ccc2c(=O)[nH]c(C(=O)NCc3ccc(Cl)cc3)nc2c1 [Compound I-68, N^2-(4-chlorobenzyl)-N^7-hydroxy-4-oxo-3,4-dihydroquinazoline-2,7-dicarboxamide] | 61.7 |
| O=C(NO)c1ccc2ccn(CCO)c(=O)c2c1 [Compound I-158, N-hydroxy-2-(2-hydroxyethyl)-1-oxo-1,2-dihydroisoquinoline-7-carboxamide] | 72.5 |
| O=C(NO)c1ccc2c(=O)[nH]c(COc3ccccc3-n3cccc3)nc2c1 [Compound I-233, N-hydroxy-4-oxo-2-{[2-(1H-pyrrol-1-yl)phenoxy]methyl}-3,4-dihydroquinazoline-7-carboxamide] | 91.1 |
| O=C(NO)c1ccc2ccn(Cc3ccc(C(F)(F)F)cc3)c(=O)c2c1 [Compound I-75, N-hydroxy-1-oxo-2-[4-(trifluoromethyl)benzyl]-1,2-dihydroisoquinoline-7-carboxamide] | 94.6 |
| O=C(NO)c1ccc2ccn(CCCOc3ccc4c(c3)OCO4)c(=O)c2c1 [Compound I-191, 2-[3-(1,3-benzodioxol-5-yloxy)propyl]-N-hydroxy-1-oxo-1,2-dihydroisoquinoline-7-carboxamide] | 95.5 |
| O=C(NO)c1ccc2ccn(Cc3cccc4cccnc34)c(=O)c2c1 [Compound I-83, N-hydroxy-1-oxo-2-(quinolin-8-ylmethyl)-1,2-dihydroisoquinoline-7-carboxamide] | 89.7 |
| O=C(NO)c1ccc2ccn(Cc3ccc4nonc4c3)c(=O)c2c1 [Compound I-290, 2-(2,1,3-benzoxadiazol-5-ylmethyl)-N-hydroxy-1-oxo-1,2-dihydroisoquinoline-7-carboxamide] | 98.5 |
| O=C(NO)c1ccc2c(=O)n(-c3ccc(Cl)cc3)c(NCc3ccc(Cl)cc3)nc2c1 [Compound I-262, 2-[(4-chlorobenzyl)amino]-3-(4-chlorophenyl)-N-hydroxy-4-oxo-3,4-dihydroquinazoline-7-carboxamide] | 68.2 |
| CC(C)(C)c1cccc(OCc2nc3cc(C(=O)NO)ccc3c(=O)[nH]2)c1 [Compound I-17, 2-[(3-tert-butylphenoxy)methyl]-N-hydroxy-4-oxo-3,4-dihydroquinazoline-7-carboxamide] | 30.6 |
| CC(C)Nc1nc2cc(C(=O)NO)ccc2c(=O)n1C [Compound I-15, N-hydroxy-2-(isopropylamino)-3-methyl-4-oxo-3,4-dihydroquinazoline-7-carboxamide] | 32.7 |
| Cc1ccccc1OCc1nc2cc(C(=O)NO)ccc2c(=O)[nH]1 [Compound I-29, N-hydroxy-2-[(2-methylphenoxy)methyl]-4-oxo-3,4-dihydroquinazoline-7-carboxamide] | 78.9 |
| Cc1ccn(CCn2ccc3ccc(C(=O)NO)cc3c2=O)n1 [Compound I-10, N-hydroxy-2-[2-(3-methyl-1H-pyrazol-1-yl)ethyl]-1-oxo-1,2-dihydroisoquinoline-7-carboxamide] | 84.5 |
| COc1ccccc1OCCn1ccc2ccc(C(=O)NO)cc2c1=O [Compound I-48, N-hydroxy-2-[2-(2-methoxyphenoxy)ethyl]-1-oxo-1,2-dihydroisoquinoline-7-carboxamide] | 97 |
| O=C(NO)c1ccc2ccn(Cc3c(Cl)cccc3Cl)c(=O)c2c1 [Compound I-7, 2-(2,6-dichlorobenzyl)-N-hydroxy-1-oxo-1,2-dihydroisoquinoline-7-carboxamide] | 94.9 |
| COc1ccc2cc(OCCCn3ccc4ccc(C(=O)NO)cc4c3=O)ccc2c1 [Compound I-151, N-hydroxy-2-{3-[(6-methoxy-2-naphthyl)oxy]propyl}-1-oxo-1,2-dihydroisoquinoline-7-carboxamide] | 96.2 |
| O=C(NO)c1ccc2ccn(CCOc3ccccc3)c(=O)c2c1 [Compound I-252, N-hydroxy-1-oxo-2-(2-phenoxyethyl)-1,2-dihydroisoquinoline-7-carboxamide] | 97.6 |
| CC(C)n1c(-c2ccccc2)nc2cc(C(=O)NO)ccc2c1=O [Compound I-9, N-hydroxy-3-isopropyl-4-oxo-2-phenyl-3,4-dihydroquinazoline-7-carboxamide] | 85 |
| O=C(NO)c1ccc2ccn(CCCOc3ccccc3Cl)c(=O)c2c1 [Compound I-227, 2-[3-(2-chlorophenoxy)propyl]-N-hydroxy-1-oxo-1,2-dihydroisoquinoline-7-carboxamide] | 93.7 |
| O=C(NO)c1ccc2[nH]c(=O)n(-c3ccccc3)c(=O)c2c1 [Compound I-123, N-hydroxy-2,4-dioxo-3-phenyl-1,2,3,4-tetrahydroquinazoline-6-carboxamide] | 71.7 |
| O=C(NO)c1ccc2ncn(C(c3ccccc3)c3ccccc3)c(=O)c2c1 [Compound I-4, 3-(diphenylmethyl)-N-hydroxy-4-oxo-3,4-dihydroquinazoline-6-carboxamide] | 79.6 |
| CC(C)n1cnc2cc(C(=O)NO)ccc2c1=O [Compound I-256, N-hydroxy-3-isopropyl-4-oxo-3,4-dihydroquinazoline-7-carboxamide] | 72 |
| O=C(NO)c1ccc2ccn(CCCc3ccccc3)c(=O)c2c1 [Compound I-11, N-hydroxy-1-oxo-2-(3-phenylpropyl)-1,2-dihydroisoquinoline-7-carboxamide] | 97 |
